The values below come from US9603367B2, “Pesticidal mixtures including spiroheterocyclic pyrrolidine diones” (priority 2012, dated 2017).

Assay [1] has as its system Tetranychus urticae (Two-Spotted Spider Mite). Briefly: Tetranychus urticae (Two-Spotted Spider Mite) feeding/contact activity, preventive; sprayed bean leaf discs. Format: in vivo. The following applies: Pirimicarb alone. The text has this: (§1) A synergistic effect exists whenever the action of an active ingredient combination is greater than the sum of the actions of the individual components.
(§2) The action to be expected E for a given active ingredient combination obeys the so-called COLBY formula and can be calculated as follows (COLBY, S. R. “Calculating synergistic and antagonistic responses of herbicide combination”. Weeds, Vol. 15, pages 20-22; 1967): […]
(§3) ppm=milligrams of active ingredient (=a.i.) per liter of spray mixture
(§4) X=% action by active ingredient A) using p ppm of active ingredient
(§5) Y=% action by active ingredient B) using q ppm of active ingredient.
(§6) According to COLBY, the expected (additive) action of active ingredients A)+B) using p+q ppm of active ingredient is If the action actually observed (O) is greater than the expected action (E), then the action of the combination is super-additive, i.e. there is a synergistic effect. In mathematical terms the synergism factor SF corresponds to O/E. In the agricultural practice an SF of ≧1.2 indicates significant improvement over the purely complementary addition of activities (expected activity), while an SF of ≦0.9 in the practical application routine signals a loss of activity compared to the expected activity.
Tetranychus urticae (Two-Spotted Spider Mite): feeding/contact activity, preventive
Bean leaf discs on agar in 24-well microtiter plates were sprayed with the DMSO test solutions of certain Mixtures (as provided by Table 45). After drying, the leaf discs were infested with mite populations of mixed ages. 8 days later, discs were checked for mortality against mobile stages.

In assay [2] the test system is Myzus persicae (Green Peach Aphid). Briefly: Myzus persicae (Green Peach Aphid) feeding/residual contact activity, preventive; sprayed sunflower leaf discs. Format: in vivo. The following applies: Pirimicarb alone.
Description: as §1, §2, §3, §4, §5, §6
Myzus persicae (Green Peach Aphid): feeding/residual contact activity, preventive
Sunflower leaf discs were placed on agar in a 24-well microtiter plate and sprayed with the DMSO test solutions of Mixtures (as provided by Table 45). After drying, the leaf discs were infested with an aphid population of mixed ages. After an incubation period of 6 DAT (days after treatment), samples were checked for mortality.

As to `Cc1nc(N(C)C)nc(OC(=O)N(C)C)c1C` [Pirimicarb], the “AVERAGE DEAD IN % AFTER 8 DAYS, Pirimicarb” value in assay [1] (25 PPM AI, mobile stages) is reported as 0%; in assay [1] (50 PPM AI, mobile stages), 0%; in assay [1] (100 PPM AI, mobile stages), 0%; in assay [1] (200 PPM AI, mobile stages (Table 48)), 0%; in assay [1] (200 PPM AI, mobile stages (Table 49)), 0%; in assay [1] (400 PPM AI, mobile stages), 0%. Moreover, the “AVERAGE DEAD IN % AFTER 6 DAYS, Pirimicarb” value in assay [2] (12.5 PPM AI, 6 DAT) was determined as 0%; in assay [2] (25 PPM AI, 6 DAT) it was 17.5%; in assay [2] (25 PPM AI, 6 DAT (Table 47)), 17.5%; in assay [2] (50 PPM AI, 6 DAT) it was 65%; in assay [2] (100 PPM AI, 6 DAT), 87.5%; in assay [2] (200 PPM AI, 6 DAT), 100%.
